Tested on: not listed separately
Test: logP determination by HPLC on reversed-phase column (C 18), EEC Directive 79/831 Annex V.A8
Assay type: physicochemical
Details: reversed-phase C 18, 43° C., acid range (0.1% aqueous phosphoric acid, acetonitrile), marked a)
Description: a) The logP values given in table 1 were determined in accordance with EEC Directive 79/831 Annex V.A8 by HPLC (High Performance Liquid Chromatography) on a reversed-phase column (C 18). Temperature: 43° C. (a) Mobile phases for the determination in the acid range: 0.1% aqueous phosphoric acid, acetonitrile; linear gradient from 10% acetonitrile to 90% acetonitrile—corresponding measurement results are marked a) in table 1. Calibration was carried out using unbranched alkan-2-ones (having 3 to 16 carbon atoms) with known logP values (determination of the logP values by the retention times using linear interpolation between two successive alkanones).

logP	Structure (SMILES)
logP = 3.67^a)	O=C1C(O)=C(c2ccccc2Cl)C(=O)N1Cc1cc(Cl)cc(Cl)c1 [Example 111]
logP = 4.61^a)	Cc1ccc(-c2ccc(Cl)cc2)cc1C1=C(O)C(=O)N(CC(C)(C)C)C1=O [Example 138]
logP = 4.80^a)	Cc1ccc(-c2ccc(Cl)cc2)cc1C1=C(O)C(=O)N(C(C)(C)c2ccccc2Cl)C1=O [Example 142]
logP = 3.01^a)	CCOC(=O)C1CCCC(N2C(=O)C(O)=C(c3ccccc3Cl)C2=O)C1 (centres unmarked) [Example 150]
logP = 3.70^a)	CCCCOC1CCCC(N2C(=O)C(O)=C(c3ccccc3Cl)C2=O)C1 (centres unmarked) [Example 152]
logP = 4.09^a)	CCCCOC1CCCC(N2C(=O)C(O)=C(c3ccccc3Cl)C2=O)C1 (centres unmarked) [Example 153]
logP = 1.94^a)	O=C1C(O)=C(c2ccccc2Cl)C(=O)N1C1CCOCC1 [Example 154]
logP = 3.18^a)	CC(C)(C)OC(=O)N1CCCC(N2C(=O)C(O)=C(c3ccccc3Cl)C2=O)C1 (centres unmarked) [Example 155]
logP = 3.87 ^a)	CC(C)(C)C(=O)OC1=C(c2ccccc2Cl)C(=O)N(C2CCOCC2)C1=O [Example 156]
logP = 2.72^a)	N#CC1(N2C(=O)C(O)=C(c3ccccc3Cl)C2=O)CCCCC1 [Example 157]
logP = 3.06^a)	CC1CCCC(C#N)(N2C(=O)C(O)=C(c3ccccc3Cl)C2=O)C1 (centres unmarked) [Example 158]
logP = 4.18^a)	CC1CC(N2C(=O)C(O)=C(c3ccccc3Cl)C2=O)CC(C)(C)C1 (centres unmarked) [Example 159]
logP = 4.41^a)	CC1(C)CC(N2C(=O)C(O)=C(c3ccccc3Cl)C2=O)CC(C)(C)C1 [Example 160]
logP = 4.20^a)	O=C1C(O)=C(c2ccccc2Cl)C(=O)N1C12CC3CC(CC(C3)C1)C2 [Example 161]
logP = 3.57^a)	CC1CCCC(N2C(=O)C(O)=C(c3ccccc3Cl)C2=O)C1 (centres unmarked) [Example 162]
logP = 3.61^a)	CC1CCCC(N2C(=O)C(O)=C(c3ccccc3Br)C2=O)C1 (centres unmarked) [Example 163]
logP = 3.14^a)	O=C1C(O)=C(c2ccccc2Cl)C(=O)N1c1ncc(C(F)(F)F)s1 [Example 164]
logP = 3.10^a)	COC(=O)C1(N2C(=O)C(O)=C(c3ccccc3Cl)C2=O)CCCCC1 [Example 165]
logP = 3.48^a)	COC(=O)C1(N2C(=O)C(O)=C(c3ccccc3Cl)C2=O)CCCC(C)C1 (centres unmarked) [Example 166]
logP = 3.40^a)	CCOC(=O)C1(N2C(=O)C(O)=C(c3ccccc3Cl)C2=O)CCCCC1 [Example 167]
logP = 3.78^a)	CCOC(=O)C1(N2C(=O)C(O)=C(c3ccccc3Cl)C2=O)CCCC(C)C1 (centres unmarked) [Example 168]
logP = 5.50^a)	CCOC(=O)C1(N2C(=O)C(OC(=O)C(C)(C)C)=C(c3ccccc3Cl)C2=O)CCCCC1 [Example 169]
logP = 5.85^a)	CCOC(=O)C1(N2C(=O)C(OC(=O)C(C)(C)C)=C(c3ccccc3Cl)C2=O)CCCC(C)C1 (centres unmarked) [Example 170]
logP = 5.01^a)	CC1CCCC(C#N)(N2C(=O)C(OC(=O)C(C)(C)C)=C(c3ccccc3Cl)C2=O)C1 (centres unmarked) [Example 171]
logP = 4.87^a)	CCOC(=O)C1CCCCC1N1C(=O)C(O)=C(c2c(C)cc(-c3ccc(Cl)cc3)cc2C)C1=O (centres unmarked) [Example 174]
logP = 4.56^a)	CC1CCCC(N2C(=O)C(O)=C(c3cccc(C(F)(F)F)c3)C2=O)C1 (centres unmarked) [Example 175]
logP = 2.21^a)	CCOC(=O)CCN1C(=O)C(O)=C(c2ccccc2Cl)C1=O [Example 177]
logP = 3.95^a)	CCOC(=O)CCN1C(=O)C(O)=C(c2cccc(OC(F)(F)F)c2)C1=O [Example 178]
logP = 2.74^a)	CCOC(=O)CCN1C(=O)C(O)=C(c2ccc(C)cc2)C1=O [Example 180]
logP = 2.47^a)	O=C1C(O)=C(c2ccc(Br)cc2Cl)C(=O)N1C1CCCC(C(F)(F)F)C1 (centres unmarked) [Example 187]

Further lines, the compound ahead of its results:

Structure (SMILES)	logP
Cc1cc(C)c(C2=C(O)C(=O)N(Cc3c(F)cccc3F)C2=O)c(C)c1 [Example 104]	logP = 3.48^a)
O=C1C(O)=C(c2cc(Cl)cc(Cl)c2)C(=O)N1Cc1c(F)cccc1F [Example 109]	logP = 3.20^a)
O=C1C(O)=C(c2ccccc2F)C(=O)N1Cc1cc(Cl)cc(Cl)c1 [Example 110]	logP = 3.56^a)
O=C1C(O)=C(c2cccc(C(F)(F)F)c2)C(=O)N1Cc1cc(Cl)cc(Cl)c1 [Example 112]	logP = 4.27^a)
O=C1C(O)=C(c2ccc(OC(F)(F)F)cc2)C(=O)N1Cc1cc(Cl)cc(Cl)c1 [Example 113]	logP = 4.67^a)
N#Cc1ccc(C2=C(O)C(=O)N(Cc3cc(Cl)cc(Cl)c3)C2=O)cc1 [Example 114]	logP = 2.94^a)
O=C1C(O)=C(c2ccc(Cl)cc2)C(=O)N1Cc1cc(Cl)cc(Cl)c1 [Example 115]	logP = 4.48^a)
O=C1C(O)=C(c2ccc(C(F)(F)F)cc2)C(=O)N1Cc1cc(Cl)cc(Cl)c1 [Example 116]	logp = 4.18^a)
O=C1C(O)=C(c2cccc(OC(F)(F)F)c2)C(=O)N1Cc1cc(Cl)cc(Cl)c1 [Example 117]	logP = 4.45^a)
O=C1C(O)=C(c2cc(Cl)cc(Cl)c2)C(=O)N1Cc1cc(Cl)cc(Cl)c1 [Example 118]	logP = 4.21^a)
Cc1ccc(C2=C(O)C(=O)N(Cc3cc(Cl)cc(Cl)c3)C2=O)cc1 [Example 119]	logp = 4.42^a)
Cc1ccc(-c2ccc(Cl)cc2)cc1C1=C(O)C(=O)N(C(C)c2ccc(Cl)cc2)C1=O (centres unmarked) [Example 120]	logP = 4.94^a)
Cc1ccc(-c2ccc(Cl)cc2)cc1C1=C(O)C(=O)N(Cc2ccc(Cl)cc2Cl)C1=O [Example 121]	logP = 5.03^a)
Cc1ccc(-c2ccc(Cl)cc2)cc1C1=C(O)C(=O)N(C(C)C)C1=O [Example 122]	logP = 4.08^a)
Cc1ccc(-c2ccc(Cl)cc2)cc1C1=C(O)C(=O)N(Cc2cccc(Cl)c2)C1=O [Example 123]	logP = 4.61^a)
Cc1ccc(-c2ccc(Cl)cc2)cc1C1=C(O)C(=O)N(c2c(F)cccc2F)C1=O [Example 124]	logP = 3.85^a)
Cc1ccc(-c2ccc(Cl)cc2)cc1C1=C(O)C(=O)N(CC2CC2)C1=O [Example 125]	logP = 4.08^a)
Cc1ccc(-c2ccc(Cl)cc2)cc1C1=C(O)C(=O)N(c2ccc(Cl)cc2Cl)C1=O [Example 126]	logP = 4.51^a)
Cc1ccc(-c2ccc(Cl)cc2)cc1C1=C(O)C(=O)N(c2c(Cl)cc(Cl)cc2Cl)C1=O [Example 127]	logP = 4.75^a)

Structure (SMILES)	logP
Cc1ccc(-c2ccc(Cl)cc2)cc1C1=C(O)C(=O)N(Cc2cccc(C(F)(F)F)c2)C1=O [Example 128]	logP = 4.65^a)
Cc1ccc(-c2ccc(Cl)cc2)cc1C1=C(O)C(=O)N(c2ccccc2Cl)C1=O [Example 129]	logP = 4.03^a)
Cc1ccc(-c2ccc(Cl)cc2)cc1C1=C(O)C(=O)N(Cc2ccccc2OC(F)(F)F)C1=O [Example 133]	logP = 4.75^a)
Cc1ccc(-c2ccc(Cl)cc2)cc1C1=C(O)C(=O)N(Cc2ccc(OC(F)(F)F)cc2)C1=O [Example 134]	logP = 4.84^a)
Cc1ccc(-c2ccc(Cl)cc2)cc1C1=C(O)C(=O)N(c2c(Cl)cccc2Cl)C1=O [Example 135]	logP = 4.18^a)
Cc1ccc(-c2ccc(Cl)cc2)cc1C1=C(O)C(=O)N(C(C)(C)C)C1=O [Example 137]	logP = 4.51^a)
Cc1ccc(-c2ccc(Cl)cc2)cc1C1=C(O)C(=O)N(Cc2cc(Cl)ccc2Cl)C1=O [Example 139]	logP = 4.84^a)
Cc1ccc(-c2ccc(Cl)cc2)cc1C1=C(O)C(=O)N(Cc2c(Cl)cccc2Cl)C1=O [Example 140]	logP = 4.70^a)
Cc1ccc(-c2ccc(Cl)cc2)cc1C1=C(O)C(=O)N(C(C)(C)c2cccc(Cl)c2)C1=O [Example 143]	logP = 4.99^a)
N#Cc1ccc(C2=C(O)C(=O)N(c3ccc(C(F)(F)F)cc3F)C2=O)cc1 [Example 144]	logP = 6.09^a)
Cc1ccc(-c2ccc(Cl)cc2)cc1C1=C(O)C(=O)N(c2ccccc2F)C1=O [Example 145]	logP = 4.94^a)
Cc1ccc(-c2ccc(Cl)cc2)cc1C1=C(O)C(=O)N(c2cc(F)ccc2F)C1=O [Example 146]	logP = 4.51^a)
CCOc1cccc(F)c1CN1C(=O)C(O)=C(c2ccc(C#N)cc2)C1=O [Example 172]	logP = 2.61^a)
CCOC(=O)CCN1C(=O)C(O)=C(c2cc(Cl)cc(Cl)c2)C1=O [Example 179]	logP = 2.80^a)
CCOc1cccc(F)c1CN1C(=O)C(O)=C(c2c(C)cc(C)cc2C)C1=O [Example 181]	logP = 3.68^a)
CCOc1cccc(F)c1CN1C(=O)C(O)=C(c2ccc(OC(F)(F)F)cc2)C1=O [Example 182]	logP = 4.13^a)
CCOc1cccc(F)c1CN1C(=O)C(O)=C(c2ccc(Cl)cc2)C1=O [Example 183]	logP = 3.85^a)
CCOc1cccc(F)c1CN1C(=O)C(O)=C(c2ccc(C(F)(F)F)cc2)C1=O [Example 184]	logP = 3.81^a)

Tested on: larvae of the mustard beetle (Phaedon cochleariae)
Test: Phaedon test (spray treatment)
Assay type: in vivo
Details: not given
Description: [table] To produce a suitable preparation of active compound, 1 part by weight of active compound is mixed with the stated amounts of solvents and emulsifier, and the concentrate is diluted with emulsifier-containing water to the desired concentration. Disks of Chinese cabbage (Brassica pekinensis) are sprayed with an active compound preparation of the desired concentration and, after drying, populated with larvae of the mustard beetle (Phaedon cochleariae). After the desired period of time, the effect in % is determined. 100% means that all beetle larvae have been killed; 0% means that none of the beetle larvae have been killed.

Structure (SMILES)	activity in the Phaedon test (spray treatment)
O=C1C(O)=C(c2ccc(Br)cc2Cl)C(=O)N1C1CCCC(C(F)(F)F)C1 (centres unmarked) [Example 187]	good activity
CC1(C)CC(N2C(=O)C(O)=C(c3ccccc3Cl)C2=O)CC(C)(C)C1 [Example 200]	good activity

Same assay, conditions: 500 g/ha, spray, Brassica pekinensis disks

Structure (SMILES)	Kill rate in % after 7 d [%]
O=C1C(O)=C(c2ccc(Br)cc2Cl)C(=O)N1C1CCCC(C(F)(F)F)C1 (centres unmarked) [Example 187]	100
CC1(C)CC(N2C(=O)C(O)=C(c3ccccc3Cl)C2=O)CC(C)(C)C1 [Example 200]	100

From US20090099192A1, “Substituted 1H-pyrrole-2,5-diones” (Bayer CropScience AG, priority 2004, published 2009)
